Results taken from patent US6949558B2, “Enhancement of taxane-based chemotherapy by a CDK1 antagonist” (Yale University, priority 2001, dated 2005).

Assays:
HeLa cells = experiment: Apoptosis by DNA content analysis and flow cytometry in HeLa cells; assay type: cell-based, human; settings: HeLa
Protocol: Cervical carcinoma HeLa (functionally inactivated p53) cells or breast carcinoma MCF-7 (wild type p53) cells were plated at 50-60% confluency in C-6 wells. Cells were treated with taxol at 0.2 μM for 0 to 32 hours in complete media.
(§1) After 4, 8, 16, and 32 hours of incubation, without removing taxol from the wells, purvalanol A was added at three increasing concentrations, 1, 10 and 20 uM (FIG. 1). A control was performed with addition of purvalanol A at the 0-h time point.
(§2) The cell populations were harvested at increasing time intervals from the 0-h time point or corresponding to the addition of purvalanol A. Apoptosis was analyzed by DNA content analysis and flow cytometry (DAPI staining).

MCF-7 cells = experiment: Apoptosis by DNA content analysis and flow cytometry in MCF-7 cells; assay type: cell-based, human
Protocol: Cervical carcinoma HeLa (functionally inactivated p53) cells or breast carcinoma MCF-7 (wild type p53) cells were plated at 50-60% confluency in C-6 wells. […]
as §1, §2

[1] = tested on: p34^cdc2 kinase activity (MPM-2 epitope) in HeLa cells; experiment: MPM-2 mitotic phosphoepitope expression (p34^cdc2 kinase activity) in HeLa cells; assay type: cell-based, human; settings: HeLa; taxol 0.2 μM, sustained for a 32-h culture
[2] = tested on: survivin expression in PC3 cells; experiment: Survivin expression by Western blotting in PC3 cells; assay type: cell-based; settings: taxol
[3] = tested on: survivin expression in HT2-19 cells; experiment: Survivin expression by Western blotting in HT2-19 cells; assay type: cell-based; settings: taxol 0.2 μM
Excerpt: Cell Cultures and Antibodies: Breast carcinoma MCF-7, prostate carcinoma PC3, and cervical carcinoma HeLa cells (American Type Culture Collection, Manassas, Va.) were maintained in culture according to the supplier's recommendations. HT2-19 cells with conditional inactivation of the p34^cdc2 gene were described previously (J. E. Itzhaki et al. (1997) Nat. Gen. 15: 258-265). In this cell line, removal of IPTG from the culture medium results in inactivation of the second p34^cdc2 allele (J. E. Itzhaki et al. (1997) Nat. Gen. 15: 258-265). For spindle checkpoint activation, the various cell types were treated with taxol (0.2-2 μM, Sigma Chemical Co., St. Louis, Mo.), vincristine (100 nM, Sigma) or cisplatin (3 μM, Sigma) for 16 h at 37° C. For genetic ablation of p34^cdc2, HT2-19 cells were washed and cultivated in the absence of IPTG for 48-72 h before analysis of apoptosis (see below) or expression of survivin or p34^cdc2, by Western blotting. In some experiments, taxol (0.2 μM) was added to HT2-19 cells simultaneously with the withdrawal of IPTG, and cells were processed as described above. […] For viral transduction, HT2-19 cells in the absence of IPTG were infected with pAd-GFP or pAd-Survivin at multiplicity of infection (m.o.i.) of 50, and analyzed after a 48-72 h culture for changes in cell cycle progression and apoptosis. […]

survivin promoter = experiment: Survivin promoter-luciferase reporter expression in MCF-7 cells; assay type: cell-based, human; settings: taxol 2 μM, all time intervals examined
Protocol: Luciferase activity was determined after 0-24 h incubation at 37° C. on a Lumat luminometer (LB9510), and normalized to β-galactosidase activity used as an internal control.
Luciferase values were normalized to β-galactosidase expression.

MCF-7 tumors = experiment: Breast cancer xenograft model (Example 8); assay type: in vivo, CB17 SCID/beige mice; settings: taxol alone 2.5 or 5 mg/kg, Purvalanol A alone 20 mg/kg, i.p.
Protocol: Breast Cancer Xenograft Model: All experiments involving animals were approved by the institutional animal cure and use committee. Six- to eight-week old female CB17 SCID/beige mice (Taconic Farms, Germantown, N.Y.) were injected s.c. into the flanks with 2.5×10^6 exponentially growing MCF-7 cells in 250 μl of sterile PBS, pH 7.4. […] Animals were injected i.p. with taxol alone (2.5 or 5 mg/kg), Purvalanol A alone (20 mg/kg) or the sequential combination of taxol-Purvalanol A for two consecutive days each divided by a day with no treatment. For single agent treatment, vehicle was given in place of taxol or Purvalanol A with the same schedule. Each complete cycle was separated by 2 d without treatment. Tumor volume was measured in the three dimensions with a caliper. Animals with tumor burden >3000 mm^3 were sacrificed (Survival).
Statistical Analysis: All in vitro experiments were repeated at least three times. […] The survival curves were compared using the log-rank test. This test generates a P value testing the null hypothesis that the survival curves are identical in the overall populations.

caspase-9 = experiment: Caspase-9 processing by Western blotting in HeLa cells; settings: taxol 0.2 μM, Purvalanol A 20 μM or sequential combination, 16 h
[4] = taxol 2 μM, adriamycin 100 nM, cis-platin 3 μM (Example 7)

CC(=O)O[C@H]1C(=O)[C@@]2(C)[C@H]([C@H](OC(=O)c3ccccc3)[C@]3(O)C[C@H](OC(=O)[C@H](O)[C@@H](NC(=O)c4ccccc4)c4ccccc4)C(C)=C1C3(C)C)[C@]1(OC(C)=O)CO[C@@H]1C[C@@H]2O [taxol, Paclitaxel]
cell population with hypodiploid (apoptotic) DNA content / cell death (HeLa cells; 16 h, taxol 0.2 μM, Purvalanol A 20 μM, alone or sequential): 16% | hypodiploid cells (HeLa cells; taxol 0.2 μM alone (Example 1)): ~10% | apoptosis (hypodiploid cell fraction) (HeLa cells; taxol 0.2 μM for 0 to 32 hours): virtually no apoptosis | cell cycle arrest (HeLa cells; taxol 0.2 μM or purvalanol A 1-20 uM alone (Examples 1, 2)): uniform M arrest | apoptosis (HeLa cells; taxol 0.2 μM, up to 32 h (Example 8)): negligible induction of apoptosis | apoptosis (hypodiploid cell fraction) (MCF-7 cells; taxol 0.2 μM for 0 to 32 hours): virtually no apoptosis | cell cycle arrest (MCF-7 cells; taxol 0.2 μM for 0 to 32 hours): uniform M arrest | apoptosis (MCF-7 cells; [4]): negligible apoptosis | cell cycle arrest (MCF-7 cells; [4]): G2/M arrest | cell cycle arrest (MCF-7 cells; taxol 0.2-2 μM (Example 8)): sustained (48-72 h) mitotic arrest | p34^cdc2 kinase activity [1]: elevated p34^cdc2 kinase activity | survivin expression [2]: increased expression of survivin | survivin expression ([3]; HT2-19 cells in the absence of IPTG (p34^cdc2 −/−)): only a minimally detectable increase in survivin expression | survivin levels ([3]; IPTG+ HT2-19 cells (p34^cdc2 +/−)): increased survivin levels | survivin gene expression (promoter-luciferase) (survivin promoter): significantly inhibited survivin gene expression | kinetics of tumor growth (MCF-7 tumors): did not affect the kinetics of tumor growth | caspase-9 processing (caspase-9): did not result in significant caspase-9 cleavage
